Here are results for 18 compounds from patent US8710232B2, “Imidazole derivatives used as TAFIa inhibitors” (Sanofi-Aventis Deutschland GmbH, priority 2004, dated 2014).

TAFIa, sequence (Q96IY4 115-423): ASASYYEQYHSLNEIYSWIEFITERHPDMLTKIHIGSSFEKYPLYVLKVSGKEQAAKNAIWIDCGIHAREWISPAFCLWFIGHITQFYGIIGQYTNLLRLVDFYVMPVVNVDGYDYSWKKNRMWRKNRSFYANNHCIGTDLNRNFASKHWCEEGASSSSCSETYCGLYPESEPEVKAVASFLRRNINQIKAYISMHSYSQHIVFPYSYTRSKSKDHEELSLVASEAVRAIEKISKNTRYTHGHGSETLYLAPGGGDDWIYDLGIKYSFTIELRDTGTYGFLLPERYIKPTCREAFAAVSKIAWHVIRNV

This experiment concerns the target TAFIa (Homo sapiens (Human), UniProt Q96IY4). As to the kind of experiment: TAFIa enzyme assay (Actichrome plasma TAFI activity kit). The class given is biochemical. The conditions noted are these: 15 min preincubation at room temperature, read at 420 nm, duplicate determination. As for the experimental part: The prepared substances were tested for TAFIa inhibition using the Actichrome plasma TAFI activity kit from American Diagnostica (Pr. No. 874). This entailed adding 29 μl of assay buffer (20 mM Hepes, 150 mM NaCl, pH 7.4) and 10 μl of TAFIa (American Diagnostica Pr. No. 874TAFIA; […]) to 1 μl of 5 mM DMSO solution of the substance and incubating in a 96 half-well microtiter plate at room temperature for 15 minutes. The enzymic reaction was started by adding 10 μl of TAFIa developer (prediluted 1:2 with water). The time course of the reaction was followed at 420 nm in a microtiter plate reader (SpectraMax plus 384; Molecular Devices) for 15 minutes. The IC50 was calculated from the averaged values (duplicate determination) of serial dilutions of the substance with the aid of the Grafit 4 software (Erithacus Software, UK).
In general, IC50 refers to the concentration at which inhibition is half-maximal. Lower therefore signals higher potency. In turn, `CC1(C)CCC(n2cnc(C(Cc3ccc(N)nc3)C(=O)O)c2)CC1` (stereo not drawn) [Example 33, 3-(6-Aminopyridin-3-yl)-2-[1-(4,4-dimethylcyclohexyl)-1H-imidazol-4-yl]propionic acid] had an IC50 of 3 nM.
The compound `C#CCn1cnc(C(Cc2ccc(N)nc2)C(=O)O)c1` (stereo not drawn) [Example 31, 3-(6-Aminopyridin-3-yl)-2-(1-prop-2-ynyl-1H-imidazol-4-yl)propionic acid] came in with a half-maximal inhibitory concentration (IC50) of 870 nM.
Compound `Nc1ccc(CC(C(=O)O)c2cn(C3CCCC3)cn2)cn1` (stereo not drawn) [Example 7, 3-(6-Aminopyridin-3-yl)-2-(1-cyclopentyl-1H-imidazol-4-yl)propionic acid] gave a 50% inhibitory concentration (IC50) of 16 nM.
Compound `CCCNC(=O)Nc1ccc(-n2cnc(C(Cc3ccc(N)nc3)C(=O)O)c2)cc1` (stereo not drawn) [Example 37, 3-(6-Aminopyridin-3-yl)-2-{1-[4-(3-propylureido)phenyl]-1H-imidazol-4-yl}propionic acid] had a half-maximal inhibitory concentration (IC50) of 49 nM.
For the compound `Nc1ccc(CC(C(=O)O)c2cn(CC(=O)NC(c3ccccc3)c3ccccc3)cn2)cn1` (stereo not drawn) [Example 10, 3-(6-Aminopyridin-3-yl)-2-{1-[(benzhydrylcarbamoyl)methyl]-1H-imidazol-4-yl}-propionic acid], the half-maximal inhibitory concentration (IC50) came out at 23 nM.
Take `Nc1ccc(CC(C(=O)O)c2cn(CC3CCCCN3C(=O)c3ccccc3)cn2)cn1` (stereo not drawn) [Example 15, 3-(6-Aminopyridin-3-yl)-2-[1-(1-benzoylpiperidin-2-ylmethyl)-1H-imidazol-4-yl]propionic acid]: inhibition was half-maximal at 12 nM (IC50).
On to `Nc1ccc(CC(C(=O)O)c2cn(C3CCN(c4ccccc4)C3=O)cn2)cn1` (stereo not drawn) [Example 9, 3-(6-Aminopyridin-3-yl)-2-[1-(2-oxo-1-phenylpyrrolidin-3-yl)-1H-imidazol-4-yl]propionic acid], for which the concentration for half-maximal inhibition (IC50) was determined as 439 nM.
`Nc1ccc(CC(C(=O)O)c2cn(Cc3cccc(Oc4ccc(F)cc4)c3)cn2)cn1` (stereo not drawn) [Example 28, 3-(6-Aminopyridin-3-yl)-2-{1-[3-(4-fluorophenoxy)benzyl]-1H-imidazol-4-yl}propionic acid] yielded a 50% inhibitory concentration (IC50) of 1440 nM.
In the case of `Nc1ccc(CC(C(=O)O)c2cn(CCC3CCN(C(=O)CCc4ccccc4)CC3)cn2)cn1` (stereo not drawn) [Example 18, 3-(6-Aminopyridin-3-yl)-2-(1-{2-[1-(3-phenylpropionyl)piperidin-4-yl]ethyl}1H-imidazol-4-yl)propionic acid] it was 21 nM; in that of `Nc1ccc(CC(C(=O)O)c2cn(-c3ccc(NC(=O)Nc4ccccc4)cc3)cn2)cn1` (stereo not drawn) [Example 12, 3-(6-Aminopyridin-3-yl)-2-{1-[4-(3-phenylureido)phenyl]-1H-imidazol-4-yl}propionic acid], 15 nM; in that of `Nc1ccc(CC(C(=O)O)c2cn(CCC3CCCN(C(=O)CCc4ccccc4)C3)cn2)cn1` (stereo not drawn) [Example 16, 3-(6-Aminopyridin-3-yl)-2-(1-{2-[1-(3-phenylpropionyl)piperidin-3-yl]ethyl}-1H-imidazol-4-yl)propionic acid], 38 nM.
`Cc1ccc(S(=O)(=O)Nc2ccc(-n3cnc(C(Cc4ccc(N)nc4)C(=O)O)c3)cc2)cc1` (stereo not drawn) [Example 38] yielded an IC50 of 50 nM.
As for `Nc1ccc(CC(C(=O)O)c2cn(C3CCNCC3)cn2)cn1` (stereo not drawn) [Example 8, 3-(6-Aminopyridin-3-yl)-2-(1-piperidin-4-yl-1H-imidazol-4-yl)propionic acid], the figure is 1130 nM; as for `Nc1ccc(CC(C(=O)O)c2cn(CC3CCCN(C(=O)C(c4ccccc4)c4ccccc4)C3)cn2)cn1` (stereo not drawn) [Example 17, 3-(6-Aminopyridin-3-yl)-2-[1-(1-diphenylacetylpiperidin-3-ylmethyl)-1H-imidazol-4-yl]-propionic acid], 11 nM.
Regarding `Nc1ccc(CC(C(=O)O)c2cn(Cc3csc4ccc(Cl)cc34)cn2)cn1` (stereo not drawn) [Example 27, 3-(6-Aminopyridin-3-yl)-2-[1-(5-chlorobenzo[b]thiophen-3-ylmethyl)-1H-imidazol-4-yl]-propionic acid], the IC50 was determined as 1110 nM.
`Nc1ccc(CC(C(=O)O)c2cn(Cc3ccc(OC(F)(F)F)cc3)cn2)cn1` (stereo not drawn) [Example 25, 3-(6-Aminopyridin-3-yl)-2-[1-(4-trifluoromethoxybenzyl)-1H-imidazol-4-yl]propionic acid] displayed an IC50 of 10500 nM.
As for `Nc1ccc(CC(C(=O)O)c2cn(CCC3CCN(C(=O)C(c4ccccc4)c4ccccc4)CC3)cn2)cn1` (stereo not drawn) [Example 13, 3-(6-Aminopyridin-3-yl)-2-{1-[2-(1-diphenylacetylpiperidin-4-yl)ethyl]-1H-imidazol-4-yl}-propionic acid], the figure is 12 nM; as for `Nc1ccc(CC(C(=O)O)c2cn(C3CCCCC3)cn2)cn1` (stereo not drawn) [Example 1, 3-(6-Aminopyridin-3-yl)-2-(1-cyclohexyl-1H-imidazol-4-yl)propionic acid], 30 nM.
